Data from patent US20220160680A1, “MICROORGANISM MIXTURES, MOLECULES DERIVED THEREFROM, AND METHODS OF USE THEREOF” (B. G. Negev Technologies and Applications Ltd., at …, priority 2018, published 2022).
“Also recorded” adds a separate entry of the source.

Legend:
[1] = test system: V. cholerae VC1 (WT) and MM920; assay: V. cholerae biofilm modulation (CLSM, crystal violet); format: cell-based, Vibrio cholerae; conditions: 900 nM CAI-1
Experimental: The various pathogenic indicator strains used in this study were V. cholerae strain MM920 (ACqsA AluxQ), Vibrio harveyi strain MM30 (LuxS, Tn5). To initiate biofilm formation, bacteria was grown in the absence of the V. cholerae autoinducer 1 (CAI1). In addition, the bacteria were grown in presence of: 900 nM CAI1 (Vibrio Cholerae MM920), 900 nM CAI1, 200 μM Tryptophol acetate and 200 μM Tyrosol acetate, and 200 μM Tryptophol acetate and 200 μM Tyrosol acetate.
Biofilms were grown under shaking conditions at 30° C. in 96-well plate (Thermo Scientific, Rochester, N.Y., USA). […] The stained cells were washed twice with PBS. Biofilm images were taken by CLSM (Plan-Apochromat 20×/0.8 M27, Zeiss LSM880, Germany).
For static biofilm assay, overnight cultures of V. cholerae strain MM920 was diluted 1:10 in fresh LB medium containing a final concentration of 100 μM from each Tryptophol acetate and Tyrosol acetate or DMSO (up to 1%) as control. […] One in absence of the V. cholerae autoinducer (CAI-1) and the other one in presence of 900 nM CAI-1. Biofilms were grown under non-shaking conditions at 37° C. in 96-well plate (Thermo Scientific, Rochester, N.Y., USA). […] The stained cells were washed twice with PBS. Biofilm images were taken by CLSM (Plan-Apochromat 20×/0.8 M27, Zeiss LSM880, Germany).
Biofilm matrixes of V. cholerae VC1 WT (FIGS. 23Ai and 23Aii), and the V. cholerae MM920 mutant (FIGS. 23Aiii and 23Aiv) were grown for 24 hours with or without tryptophol acetate in the growth medium, and stained using the BacLight® Dead/Live Kit to distinguish viable cells.

Peritoneal macrophages = assay: In vitro LPS stimulation of peritoneal macrophages, cytokine ELISA (24 hr); format: cell-based, mice; conditions: 100 μM, 0.1 μg/ml LPS
Experimental: Peritoneal macrophages were harvested using the protocol as described previously (Zhang et al., 2008). Elicited macrophages were harvested from WT mice which had received a 2.5 ml intraperitoneal administration of 3% Brewer thioglycolate broth (Sigma, UK) 72 hr prior collection.
Peritoneal macrophages cells (5×10^5/ml) were cultured with 0.1 μg/ml Lipopolysaccharides (LPS-Escherichia coli serotype 0127:B8, Sigma-Aldrich) and in the presence of 100 μM: tryptophol acetate, tyrosol acetate, dopamine HCl, caffeic acid, or combination of tryptophol acetate and tyrosol acetate, for 24 hr. Following culture, supernatants were collected and stored at −20° C. for the detection of the IL-6 cytokine. For IL-la detection, the inventors induced macrophages lysis by adding fresh RPMI medium and thawing three times.
IL-la and IL-6 levels were measured in peritoneal exudate fluids and LPS-stimulated culture supernatants by ELISA. To detect the cytokines, a R&D ELISA kit (Catalog #MLA00 and DY406, respectively) was used as per the manufacturer's instructions. A standard curve was constructed using serial dilutions of purified IL-la or IL-6 starting at a concentration of 15 ng/ml.

SMILES	Biofilm of V. cholerae MM920, autoinducer alone [1]	Production of IL-6 (Peritoneal macrophages)
CCCCCCCCCC(=O)[C@@H](O)CC [CAI-1, reference compound]	disruption of biofilm integrity	–
O=C(O)/C=C/c1ccc(O)c(O)c1 [caffeic acid]	–	comparable results; also recorded: dramatically reduced
